Test results published in paper PMC10762177, “Novel betulin derivatives as multidrug reversal agents targeting P-glycoprotein” (Scientific Reports, 2024).
Entries after “also recorded” stand apart in the source; their conditions may differ. Where two headings read alike, the source gives them in different places.

Legend:
MA-104 cells = tested on: MA-104 cells; design: method as in Delou et al. 2009[44]; conditions: 22 µM; ref Delou et al. 2009[44]; cited from earlier work
P-gp [1] = target: T1, P-gp (Homo sapiens, UniProt P08183); assay: Rhodamine 123 intracellular accumulation assay in K562/Dox (flow cytometry); conditions: for FAR (fluorescence activity ratio): Rho123, K562/Dox; for MEC (minimum effective concentration) / dose-dependent behavior, b: Rho123 accumulation, K562/Dox
K562/Dox cells [2] = assay: MTT colorimetric assay, cytotoxicity on resistant K562/Dox; type: cell-based; conditions: MTT, K562/Dox; for IC50: 48 h, read-out: IC50 K562/Dox
Description: This colorimetric technique is based on the ability of viable cells to capture MTT and reduce it through the mitochondrial enzyme succinic dehydrogenase to its insoluble form, formazan crystals. The target compounds dissolved in DMSO (0.5% v/v as final concentration which was non-toxic to cells) at a maximum concentration of 50 µM were exposed to 5 × 10^4 cells distributed in a 96-well plate and incubated for 48 h. […] After this time, the plate was centrifuged at 2000 rpm for 10 min, and 100 µL of DMSO was added to dissolve the formazan crystals formed. Absorbance (Abs) was read at a wavelength of 595 nm in an iMark microplate reader (Bio-Rad, USA). The percentages of cytotoxicity were determined as compared to DMSO treated control cells, which were considered 100% viable as showing the same level of growth as the untreated cells.

K562 cells [3] = assay: MTT colorimetric assay, cytotoxicity on sensitive K562; type: cell-based; conditions: for IC50: MTT, 48 h, K562
Description: This colorimetric technique is based on the ability of viable cells to capture MTT and reduce it through the mitochondrial enzyme succinic dehydrogenase to its insoluble form, formazan crystals. […] After this time, the plate was centrifuged at 2000 rpm for 10 min, and 100 µL of DMSO was added to dissolve the formazan crystals formed. Absorbance (Abs) was read at a wavelength of 595 nm in an iMark microplate reader (Bio-Rad, USA).

P-gp [4] = target: T1, P-gp
K562 cells [5] = assay: Rhodamine 123 intracellular accumulation assay in K562 (flow cytometry); conditions: for Rho123 accumulation in K562: K562, maximum concentration assayed
P-gp [6] = target: T1, P-gp; assay: Doxorubicin intracellular accumulation assay in K562/Dox (flow cytometry)
K562/Dox cells [7] = assay: Doxorubicin resistance reversal assay in K562/Dox (MTT); conditions: for FR (fold reversal): Dox co-administered
Description: (§1) Simultaneously, viability controls were run with no addition of the dissolution solvent. The cells were incubated at 37 °C at 5% CO2 for 48 h and the same protocol described above was followed. The potency of the compounds was established by means of the fold reversal (FR) values calculated from dividing the IC50 of Dox alone by the IC50 of Dox with different concentrations of each compound tested.

K562 cells [8] = assay: Doxorubicin resistance reversal assay in K562 (MTT); type: cell-based; conditions: K562, 1.56 µM
Description: as §1

[9] = tested on: peripheral blood mononuclear cells (PBMC); assay: Cytotoxicity on peripheral blood mononuclear cells (MTT); type: cell-based, human; conditions: MTT, 48 h, up to 50 µM
Description: (§2) . PBMC were isolated by the Ficoll-Hypaque density gradient centrifugation technique of fresh heparinized blood from healthy human volunteers. The protocol was previously approved by the Catholic University of Córdoba Research Ethics Board. Signed informed consents were obtained from donors. All methods were performed in accordance with the relevant guidelines and regulations. Briefly, 1 × 10^5 cells/well in a 96-well plate were incubated with 10 µg/mL PHA, in the presence of the corresponding concentrations of the compounds or 0.5% v/v DMSO (negative control) for 48 h, and processed as above described for the MTT method. The percentages of inhibition on cell proliferation were determined by comparison with negative controls, and the corresponding IC50 values were calculated from the best fit of the concentration-dependent inhibition curves in GraphPad Prism 7.

erythrocytes = assay: Erythrocyte hemolysis assay; type: cell-based, human; conditions: maximum tested concentration of 50 µM, 1 h
Description: For the erythrocyte hemolysis assay, the red blood cell suspension was obtained from fresh heparinized blood collected from healthy human volunteer donors, without receiving any treatment. The blood sample was centrifuged at 2,500 rpm for 10 min at 4 °C. The supernatant was discarded, and the red blood cell pellet was subjected to two consecutive washes with sterile PBS, using the same centrifugation conditions. An aliquot of the pellet obtained was resuspended in PBS (3% v/v). The compounds were incubated at decreasing concentrations starting from 50 µM with the suspension at 37 °C for 1 h. Controls with 1% DMSO and no solvent were included.

K562 cells [10] = assay: Doxorubicin intracellular accumulation assay in K562 (flow cytometry); conditions: K562, versus negative control
P-gp [11] = target: T1, P-gp; conditions: Rho123 accumulation, K562/Dox; cited from earlier work
[12] = Cytotoxicity on peripheral blood mononuclear cells (MTT); type: cell-based, human; conditions: human
Description: as §2

T1 sequence (P08183 whole entry): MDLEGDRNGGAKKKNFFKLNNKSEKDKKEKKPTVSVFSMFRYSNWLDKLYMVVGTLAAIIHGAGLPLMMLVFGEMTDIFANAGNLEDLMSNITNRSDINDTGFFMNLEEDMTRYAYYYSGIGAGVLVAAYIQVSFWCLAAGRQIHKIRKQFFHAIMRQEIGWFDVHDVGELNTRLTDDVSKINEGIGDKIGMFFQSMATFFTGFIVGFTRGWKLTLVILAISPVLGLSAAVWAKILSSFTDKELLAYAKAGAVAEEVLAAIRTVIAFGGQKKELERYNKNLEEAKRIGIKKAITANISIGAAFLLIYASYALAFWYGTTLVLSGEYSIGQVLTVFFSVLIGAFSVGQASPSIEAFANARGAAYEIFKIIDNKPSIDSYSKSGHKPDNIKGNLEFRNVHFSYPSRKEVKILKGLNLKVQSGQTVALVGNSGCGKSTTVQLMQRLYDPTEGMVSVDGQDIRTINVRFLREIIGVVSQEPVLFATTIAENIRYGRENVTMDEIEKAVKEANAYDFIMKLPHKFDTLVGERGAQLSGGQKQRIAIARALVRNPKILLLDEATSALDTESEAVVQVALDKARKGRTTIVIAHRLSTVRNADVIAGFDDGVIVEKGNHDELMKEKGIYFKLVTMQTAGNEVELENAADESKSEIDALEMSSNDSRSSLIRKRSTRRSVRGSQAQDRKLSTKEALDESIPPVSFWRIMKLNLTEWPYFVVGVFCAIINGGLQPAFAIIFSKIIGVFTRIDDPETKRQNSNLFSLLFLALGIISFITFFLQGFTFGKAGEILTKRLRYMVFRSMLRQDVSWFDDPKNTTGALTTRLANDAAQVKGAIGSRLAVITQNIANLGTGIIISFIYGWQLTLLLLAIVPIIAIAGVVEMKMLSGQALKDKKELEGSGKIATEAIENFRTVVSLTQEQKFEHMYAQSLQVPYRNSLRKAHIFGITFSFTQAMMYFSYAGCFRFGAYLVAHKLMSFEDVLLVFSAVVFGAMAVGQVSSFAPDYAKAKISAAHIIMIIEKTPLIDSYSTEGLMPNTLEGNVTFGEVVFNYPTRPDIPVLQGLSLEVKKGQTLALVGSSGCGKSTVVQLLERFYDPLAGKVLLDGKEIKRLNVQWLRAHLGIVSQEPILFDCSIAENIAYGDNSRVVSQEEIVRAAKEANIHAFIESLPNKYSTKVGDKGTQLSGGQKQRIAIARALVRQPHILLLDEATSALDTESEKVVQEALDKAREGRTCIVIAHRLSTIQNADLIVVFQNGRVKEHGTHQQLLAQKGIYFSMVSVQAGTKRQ

SMILES	FAR (fluorescence activity ratio) (P-gp [1]; 50 µM)	IC50 (K562/Dox cells [2]; Homo sapiens, K562, 48 h) [µM]	IC50 (K562 cells [3]; Homo sapiens, K562, 48 h) [µM]	IC50 (K562 cells [3]) [µM]	MEC, Dox accumulation (P-gp [6]) [µM]	FAR (fluorescence activity ratio) (P-gp [1]; 0.78 µM)	MEC (minimum effective concentration) (P-gp [1]) [µM]	MEC, Dox resistance reversal (K562/Dox cells [7]; K562/Dox) [µM]	FR (fold reversal) (K562/Dox cells [7]; K562/Dox, 0.78 µM)	FR (fold reversal) (K562/Dox cells [7]; K562/Dox, 1.56 µM)	reversal effect on parental K562 (K562 cells [8])	erythrocyte hemolysis (erythrocytes)	Dox accumulation in K562 (K562 cells [10])	Rho123 accumulation in K562 (K562 cells [5])	FAR (fluorescence activity ratio) (P-gp [1]; 0.19 µM)	FAR (fluorescence activity ratio) (P-gp [1]; 1.56 µM)	FAR (fluorescence activity ratio) (P-gp [1]; 3.12 µM)	FAR (fluorescence activity ratio) (P-gp [1]; 6.25 µM)	FAR (fluorescence activity ratio) (P-gp [1]; 25 µM)	dose-dependent behavior, b (P-gp [1])	also measured
C=C(C)[C@@H]1CC[C@]2(C(=O)O)CC[C@]3(C)[C@H](CC[C@@H]4[C@@]5(C)CC[C@H](O)C(C)(C)[C@@H]5CC[C@]43C)[C@@H]12 [Compound 2, betulinic acid, reference compound]	1.05 ± 0.04	–	–	–	–	–	–	–	–	–	–	–	–	–	–	–	–	–	–	–	Rho123 accumulation in MA-104 cells (MA-104 cells): not to alter Rho123 accumulation
COc1cc2c(cc1OC)CN(CCc1ccc(NC(=O)c3cc(OC)c(OC)cc3NC(=O)c3cnc4ccccc4c3)cc1)CC2 [Tariquidar, tariquidar, reference compound]	–	2.2	2.4	2.38 ± 0.32	0.39	1.12 ± 0.03	0.78	–	–	–	–	–	–	–	–	–	–	–	–	–	IC50 (K562/Dox cells [2]): 2.25 ± 0.28 µM; FAR (fluorescence activity ratio) (P-gp [4]; 1.56 µM): 1.22 ± 0.05; FAR (fluorescence activity ratio) (P-gp [4]; 3.12 µM): 1.14 ± 0.03; FAR (fluorescence activity ratio) (K562 cells [5]; Rho123, K562, 3.12 µM): 0.82 ± 0.11
C=C(C)[C@@H]1CC[C@]2(COC(=O)NCCc3cc(OC)c(OC)c(OC)c3)CC[C@]3(C)[C@H](CC[C@@H]4[C@@]5(C)CC[C@H](O)C(C)(C)[C@@H]5CC[C@]43C)[C@@H]12 [Compound 6g]	4.02 ± 0.70	> 50	> 50	–	0.098	1.33 ± 0.14	0.19	0.024	3.98 ± 0.71	5.37 ± 1.36	slight increase in Dox toxicity	devoid of toxic effects; also recorded: Neither compound induced erythrocyte hemolysis	did not increase Dox accumulation	did not increase Rho123 accumulation	1.09 ± 0.03	1.61 ± 0.23	2.05 ± 0.36	2.62 ± 0.49	3.47 ± 0.61	64.49	potency for restoring the cytotoxicity of Dox relative to compound 1 (times) (K562/Dox cells [7]; K562/Dox): 16; FR (fold reversal) (K562/Dox cells [7]; K562/Dox, 0.024 µM): 1.17 ± 0.05; cytotoxicity on PBMC [9]: devoid of toxic effects; also recorded: did not reveal cytotoxicity; FAR, Dox accumulation (P-gp [6]; 50 µM): 1.26 ± 0.02; FAR (fluorescence activity ratio) (P-gp [1]; 0.098 µM): 1.00 ± 0.04
C=C(C)[C@@H]1CC[C@]2(CO)CC[C@]3(C)[C@H](CC[C@@H]4[C@@]5(C)CC[C@H](O)C(C)(C)[C@@H]5CC[C@]43C)[C@@H]12 [Compound 1, betulin]	2.77 ± 0.36	–	–	–	–	1.01 ± 0.07	–	0.39	–	–	–	–	–	–	–	1.12 ± 0.03	1.23 ± 0.04	1.32 ± 0.06	2.34 ± 0.19	–	MEC (minimum effective concentration) (P-gp [11]): 1.56 µM; FAR (fluorescence activity ratio) (P-gp [1]; 12.50 µM): 1.80 ± 0.08
C=C(C)[C@@H]1CC[C@]2(COC(=O)N3CCN(C)CC3)CC[C@]3(C)[C@H](CC[C@@H]4[C@@]5(C)CC[C@H](O)C(C)(C)[C@@H]5CC[C@]43C)[C@@H]12 [Compound 6i]	–	33.91 ± 0.09	19.1	19.1 ± 0.87	0.098	1.30 ± 0.06	0.39	0.19	1.63 ± 0.06	2.69 ± 0.39	did not show a reversal effect	devoid of toxic effects; also recorded: Neither compound induced erythrocyte hemolysis	did not increase Dox accumulation	did not increase Rho123 accumulation	1.08 ± 0.05	1.41 ± 0.14	1.71 ± 0.06	2.04 ± 0.05	–	40.14	toxicity (K562/Dox cells [2]; 50 μM): more than 55%; toxicity (K562 cells [3]; 50 μM, K562, MTT): more than 55%; potency for restoring the cytotoxicity of Dox relative to compound 1 (times) (K562/Dox cells [7]): nearly twice; FR (fold reversal) (K562/Dox cells [7]; K562/Dox, 0.19 µM): 1.39 ± 0.07; IC50 at 48 h [12]: 26.4 ± 2.88 µM; viability at 48 h, 50 µM [12]: 64%; FAR, Dox accumulation (P-gp [6]; 25 µM): 1.27 ± 0.03
